Laboratory results published in patent publication US20190211020A1 (Agency for Science, Technology and Research, priority 2012, published 2019).
Where two headings read alike, the source gives them in different places.

Key:
[1] = tested on: MV-4-11 (leukemia); test: Cell cytotoxicity assay (CellTiter-Glo), MV-4-11; assay type: cell-based; conditions: Homo sapiens, cell viability
Experimental: (§1) Cancer cell lines, MV-4-11 (leukemia), P116.c139 (acute T cell leukemia) and D1.1 (acute T cell leukemia), were purchased from ATCC and cultured according to supplier's recommendations. K562 cells (myelogenous leukemia) over-expressing eIF4E, were also used for the cytotoxicity assay. For cells treated for 48 hours, 5000 cells were seeded in 70 μl of growth medium in black, flat-bottom 96-well plate. For cells treated for six days, 1000 cells were seeded in 70 μl of growth medium in black, flat-bottom 96-well plate. […] 50 μl of the diluted compounds was added to the cells and incubated at 37° C. in 5% CO2. After 48 hours or six days treatment, cell viability was determined by CellTiter-Glo Luminescent Cell Viability Assay (Promega, Madison, Wis.). 120 μl of the reagent was added to the cells and luminescence was measured using Tecan Safire Reader. Data was analysed with Graphpad Prism software and the figures represented indicate the half maximal inhibitory concentration (IC50). Error bars denote standard deviation (SD).

[2] = tested on: K562 cells (myelogenous leukemia) over-expressing eIF4E; test: Cell cytotoxicity assay (CellTiter-Glo), K562; assay type: cell-based; conditions: for IC50: Homo sapiens, cell viability
Experimental: as §1

[3] = tested on: nuclear active beta-catenin in BC-CML primary cells; test: Immunofluorescence of nuclear active beta-catenin in BC-CML primary cells; assay type: cell-based, human
From the text: Cord Blood (CB) samples were purchased from the Singapore Cord Blood bank. CML samples were the Singapore General Hospital after signed informed consent under local IRB-approved procedures. MNCs were obtained using Ficoll separation, and CD34^+ cells selected by immunomagnetic beads (Miltenyi Biotech, Germany).
Cells (1×10^5) were cytospun onto glass slides, fixed with 4% paraformaldehye, and stained with mouse monoclonal antibodies against activated β-catenin (clone 8E7, Millipore, UK), or rabbit monoclonal antibodies against phospho-eIF4E S209 (EP2151Y, Abcam, UK). Slides were then stained with either PE-conjugated anti-mouse or FITC-conjugated anti-rabbit antibodies. Images were obtained with the use of a fluorescence microscope (Olympus IX71S1F3) at 40× magnification.

[4] = tested on: P116.c139 (acute T cell leukemia); test: Cell cytotoxicity assay (CellTiter-Glo), P116.c139; assay type: cell-based; conditions: T-cell, cell viability
Experimental: as §1

[5] = tested on: eIF4E phosphorylation in cerebellar neurons in brain sections; test: Immunoblot of phospho-eIF4E in mouse cerebellar brain slices; conditions: 40 μM CGP57380 or 50 nM ETC7168 for 45 mins
Experimental: For biochemical analyses mice were sacrificed by CO2 inhalation, the cerebellum dissected and rapidly placed in a vibratome chamber and sectioned at 300 μm in cold oxygenated aCSF (in mM: 125 NaCl, 2.5 KCl, 1 MgCl2, 2 CaCl2, 1.25 NaH2PO4, 20 Glucose, 26 NaHCO3, 95% O2/5% CO2). Slices obtained were maintained at 33° C. in oxygenated aCSF and treated with 40 μM CGP57380 or 50 nM ETC7168 for 45 mins and tissues were subsequently snap frozen in liquid nitrogen. Tissues were lysed in 25 mM Tris-HCl, 150 mM NaCl, 1% Triton, 0.2% SDS, 5 mM EDTA, 2 mM DTT, 1 mM NaF, 1 mM Na3VO4 containing protease inhibitor cocktail. The soluble fractions were analyzed by immunoblotting with primary antibodies for 24 hrs at 4° C. followed by detection with secondary antibodies for enhanced chemoluminescent detection. […] Behavioral testing was performed using a well-accepted test for autism that consists of quantitative analysis of ultrasonic vocalizations emitted by male mice exposed to females in estrous^75. […] Prior to testing, the estrous cycle of each female mouse was assessed and only females in estrous were kept for testing. […] Subsequently a female in estrous was introduced in the arena, and ultrasonic vocalizations were recorded for 3 min using the Avisoft system (Avisoft Bioacoustics) with a frequency bandwidth of 30 kHz to 100 kHz. The number and length of ultrasonic vocalizations were quantified. […]

SMILES: N#Cc1ccc(-c2cnc3ccc(-c4ccc(C(=O)N5CCOCC5)cc4)nn23)cc1 [Example 62, 4-(6-(4-(morpholine-4-carbonyl)phenyl)imidazo[1,2-b]pyridazin-3-yl)benzonitrile]
- IC50 ([1]; MV4-11, 144 h, 6 days, read-out: IC50 after 6 days of treatment, MV-4-11): 0.2 µM
- IC50 ([1]; MV4-11, 48 hours, read-out: IC50 after 48 hours of treatment, MV-4-11): 0.8 µM
- IC50 ([2]; K562, 144 h, 6 days, read-out: IC50 after 6 days of treatment, K562): 3.1 µM
- IC50 ([2]; K562, 48 hours, read-out: IC50 after 48 hours of treatment, K562): 7.5 µM
- change of IC50 when treatment duration was extended from 48 hours to 6 days, K562 ([2]; K562 cells over-expressing eIF4E): reduced by more than half
- nuclear active beta-catenin in BC-CML primary cells, immunofluorescence [3]: decrease in nuclear beta-catenin accumulation
- IC50 ([4]; 144 h, 6 days, read-out: IC50 after 6 days of treatment, P116.c139): 0.3 µM
- IC50 ([4]; 48 hours, read-out: IC50 after 48 hours of treatment, P116.c139): 0.8 µM
- eIF4E phosphorylation in cerebellar brain sections [5]: inhibit eIF4E phosphorylation
